From EP4732841A1, “FOAM SCLEROSANT COMPOSITION, AND PREPARATION METHOD THEREFOR AND USE THEREOF” (Jenkem Technology Co., Ltd. (Beijing), priority 2023, dated 2025)

Columns and labels:
[1] = Foam stability of polidocanol with single molecular weight (Tessari method); format: physicochemical; conditions: for Foam coalescence time / Foam drainage time: 1% solution in 4% solution of ethanol in PBS, Tessari method, gas-to-liquid ratio 3:1; for foam formed after thorough mixing with air: 1% solutions mixed with air at a volume ratio of 1:3
Protocol: Samples of polidocanol with a single molecular weight (DD-PEG8-OH, DD-PEG9-OH, and DD-PEG10-OH prepared in Example 1) and a control (polidocanol in a mixture state containing different molecular weights, purchased from Siegfried Hameln GmbH, Germany, batch number OK13103) were separately weighed and prepared into 1% solutions using a 4% solution of ethanol in PBS. The polidocanol was foamed using the Tessari method, i.e., two 2.5 mL syringes were connected via a three-way tube and rapidly pushed and pulled back and forth at a gas-to-liquid ratio of 3:1 until foam formed. All foam was collected into one syringe, the volume was brought to 2 mL, and the foam state was observed while standing. The following parameters were recorded: foam drainage time, foam halflife time, and foam coalescence time.

rabbit marginal ear vein = experiment: Venous sclerosing effect in the rabbit marginal ear vein model; format: in vivo; conditions: maximum volume 0.25 mL, calculated on number of rabbit ears
Protocol: The rabbit marginal ear vein was used as an experimental model to compare the effects of adding different concentrations of sodium hyaluronate on the venous sclerosing effect of polidocanol. The specific method was as follows: (1) Domestic rabbits were anesthetized with xylazine (2-5 mg/kg, intramuscular injection). Subsequently, the hair on the ears was shaved, and the area was disinfected using a 0.5% chlorhexidine alcohol solution. (2) The Tessari method was used to foam the polidocanol with the addition of sodium hyaluronate, i.e., two 10 mL syringes were connected via a three-way tube and rapidly pushed and pulled back and forth at a certain gas-to-liquid ratio until foam was formed. (3) A disposable syringe was used to puncture the marginal vein, and the sclerosant was injected slowly, with a maximum volume of 0.25 mL. […]
In this example, 14 days after the injection of different types of polidocanol into some rabbit marginal ear veins, some blood vessels were occluded. […] All rabbit ear blood vessels were scored, with effective ones recorded as 1 and ineffective ones recorded as 0.
The calculation rule for the effective rate was as follows: effective rate = score of rabbit ears/total number of rabbit ears × 100% (calculated based on the number of rabbit ears).
All rabbit ear blood vessels were scored, with effective ones recorded as 1 and ineffective ones recorded as 0. […]

Compound | Foam coalescence time [1] [min] | Foam drainage time [1] [s] | Foam coalescence time ([1]; listed as P8 (1%)) [m] | foam formed after thorough mixing with air [1] | D14 effective rate (%) (rabbit marginal ear vein; venous sclerosis 14 days after injection of foam into rabbit marginal ear veins) | D21 effective rate (%) (rabbit marginal ear vein; venous sclerosis 21 days after injection of foam into rabbit marginal ear veins) | Foam coalescence time ([1]; listed as P10 (1%)) [m]
CCCCCCCCCCCCOCCOCCOCCOCCOCCOCCOCCOCCO [P8] | 13 | 3 | 13 | formed homogeneous foam | – | – | –
CCCCCCCCCCCCOCCOCCOCCOCCOCCOCCOCCOCCOCCO [P9] | – | – | – | – | 91.67 | 83.33 | –
CCCCCCCCCCCCOCCOCCOCCOCCOCCOCCOCCOCCOCCOCCO [P10] | 20 | 8 | – | formed homogeneous foam | – | – | 20
